Laboratory results published in PubChem BioAssay AID248 (DTP/NCI, 2004).
Several values for one entry are separate records, joined by “and”; a condition that tells them apart may be missing. Identical values can stand only once. Inconclusive results and toxic doses are left out. No stated cut-off is given here; in the data, active means T/C of 150% or more; inactive means T/C below 125%. Peptide text beside a SMILES is read from it. * marks the point of attachment. Cbz = O=C(OCc1ccccc1)*; Bn = c1ccc(C*)cc1

System: L1210 leukemia ip in BDF1 mice, survival T/C
Assay: NCI In Vivo Anticancer Drug Screen. Data for tumor model L1210 Leukemia (intraperitoneal) in B6D2F1 (BDF1) mice
Conditions: endpoint: mean survival time, higher = longer survival
Outline: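 Each compound was tested against a transplantable tumor grown in mice. The endpoint was survival, with treated animals benchmarked against vehicle controls as a simple ratio.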

[1] = dose: 100.0 mg/kg/injection, schedule: Q04DX002 (ip), vehicle: saline
[2] = dose: 200.0 mg/kg/injection, schedule: Q04DX002 (ip), vehicle: saline
[3] = dose: 400.0 mg/kg/injection, schedule: Q04DX002 (ip), vehicle: saline
[4] = dose: 100.0 mg/kg/injection, schedule: Q01DX009 (ip), vehicle: Klucel (hydroxypropylcellulose) (HPC)
[5] = dose: 100.0 mg/kg/injection, schedule: Q04DX003 (ip), vehicle: Klucel (hydroxypropylcellulose) (HPC)
[6] = dose: 200.0 mg/kg/injection, schedule: Q01DX009 (ip), vehicle: Klucel (hydroxypropylcellulose) (HPC)
[7] = dose: 200.0 mg/kg/injection, schedule: Q04DX003 (ip), vehicle: Klucel (hydroxypropylcellulose) (HPC)
[8] = dose: 400.0 mg/kg/injection, schedule: Q04DX003 (ip), vehicle: Klucel (hydroxypropylcellulose) (HPC)
[9] = dose: 12.5 mg/kg/injection, schedule: Q01DX009 (ip), vehicle: saline
[10] = dose: 25.0 mg/kg/injection, schedule: Q01DX009 (ip), vehicle: saline
[11] = dose: 50.0 mg/kg/injection, schedule: Q01DX009 (ip), vehicle: saline
[12] = dose: 100.0 mg/kg/injection, schedule: Q01DX009 (ip), vehicle: saline with Tween-80
[13] = dose: 200.0 mg/kg/injection, schedule: Q01DX009 (ip), vehicle: saline with Tween-80
[14] = dose: 100.0 mg/kg/injection, schedule: Q01DX001 (ip), vehicle: saline
[15] = dose: 200.0 mg/kg/injection, schedule: Q01DX001 (ip), vehicle: saline
[16] = dose: 400.0 mg/kg/injection, schedule: Q01DX001 (ip), vehicle: saline

Measured: T/C

O=C1NC(=O)C2C3CCC(O3)C12 (stereo not drawn)
inactive: dose: 25.0 mg/kg/injection, schedule: Q04DX002 (ip), vehicle: Klucel (hydroxypropylcellulose) (HPC) 92 % of control and 98 % of control | dose: 50.0 mg/kg/injection, schedule: Q04DX002 (ip), vehicle: Klucel (hydroxypropylcellulose) (HPC) 96 % of control and 102 % of control | dose: 55.0 mg/kg/injection, schedule: Q01DX Z (ip), vehicle: methylcellulose (MC) 98 % of control | dose: 83.0 mg/kg/injection, schedule: Q01DX Z (ip), vehicle: methylcellulose (MC) 105 % of control | dose: 100.0 mg/kg/injection, schedule: Q04DX002 (ip), vehicle: Klucel (hydroxypropylcellulose) (HPC) 103 % of control and 98 % of control and 86 % of control | dose: 125.0 mg/kg/injection, schedule: Q01DX Z (ip), vehicle: methylcellulose (MC) 94 % of control | dose: 200.0 mg/kg/injection, schedule: Q04DX002 (ip), vehicle: Klucel (hydroxypropylcellulose) (HPC) 106 % of control

Cc1ccc(S(=O)(=O)N=S(CCCl)CCCl)cc1
inactive: [1] 92 % of control | [2] 99 % of control | [3] 101 % of control

Cc1ccc(NS(=O)(=O)c2ccc(Cl)cc2)cc1Cl
inactive: dose: 25.0 mg/kg/injection, schedule: Q01DX009 (ip), vehicle: Klucel (hydroxypropylcellulose) (HPC) 94 % of control | dose: 50.0 mg/kg/injection, schedule: Q01DX009 (ip), vehicle: Klucel (hydroxypropylcellulose) (HPC) 99 % of control | [4] 96 % of control | [5] 106 % of control | [6] 99 % of control | [7] 96 % of control | dose: 400.0 mg/kg/injection, schedule: Q01DX009 (ip), vehicle: Klucel (hydroxypropylcellulose) (HPC) 88 % of control | [8] 100 % of control

NCCCC(=O)NCCCCCCCCCCNC(=O)CCCN
inactive: dose: 3.0 mg/kg/injection, schedule: Q01DX012 (ip), vehicle: saline 105 % of control | dose: 10.0 mg/kg/injection, schedule: Q01DX012 (ip), vehicle: saline 108 % of control | dose: 30.0 mg/kg/injection, schedule: Q01DX012 (ip), vehicle: saline 103 % of control

Cc1ccc(SC(=O)CCl)cc1
inactive: dose: 66.0 mg/kg/injection, schedule: Q01DX009 (ip), vehicle: gum acacia 93 % of control | dose: 100.0 mg/kg/injection, schedule: Q01DX009 (ip), vehicle: gum acacia 90 % of control | dose: 100.0 mg/kg/injection, schedule: Q04DX003 (ip), vehicle: gum acacia 102 % of control | dose: 150.0 mg/kg/injection, schedule: Q01DX009 (ip), vehicle: gum acacia 90 % of control | dose: 200.0 mg/kg/injection, schedule: Q01DX009 (ip), vehicle: gum acacia 97 % of control | dose: 200.0 mg/kg/injection, schedule: Q04DX003 (ip), vehicle: gum acacia 96 % of control | dose: 400.0 mg/kg/injection, schedule: Q04DX003 (ip), vehicle: gum acacia 94 % of control

[N-]=[N+]=NCCCCCCCCCCN=[N+]=[N-]
inactive: dose: 75.0 mg/kg/injection, schedule: Q04DX003 (ip), vehicle: saline 102 % of control | dose: 150.0 mg/kg/injection, schedule: Q04DX003 (ip), vehicle: saline 101 % of control | dose: 300.0 mg/kg/injection, schedule: Q04DX003 (ip), vehicle: saline 91 % of control

Clc1ccc2c(c1)C(=P(c1ccccc1)(c1ccccc1)c1ccccc1)c1cc(Cl)cc(Cl)c1-2
inactive: dose: 100.0 mg/kg/injection, schedule: Q01DX001 (ip), vehicle: Klucel (hydroxypropylcellulose) (HPC) 96 % of control | [5] 102 % of control | dose: 200.0 mg/kg/injection, schedule: Q01DX001 (ip), vehicle: Klucel (hydroxypropylcellulose) (HPC) 96 % of control | [7] 95 % of control | dose: 400.0 mg/kg/injection, schedule: Q01DX001 (ip), vehicle: Klucel (hydroxypropylcellulose) (HPC) 91 % of control | [8] 93 % of control

Cc1cccnc1NC(=O)/C=C/C(=O)O
inactive: [9] 94 % of control | [10] 100 % of control | [11] 94 % of control

C=CC[n+]1cccc2ccccc21
inactive: [9] 97 % of control | dose: 12.5 mg/kg/injection, schedule: Q04DX003 (ip), vehicle: saline 98 % of control | [10] 101 % of control | dose: 25.0 mg/kg/injection, schedule: Q04DX003 (ip), vehicle: saline 104 % of control | [11] 99 % of control | dose: 50.0 mg/kg/injection, schedule: Q04DX003 (ip), vehicle: saline 98 % of control

Cc1cn(C2CC(O)C(CO)O2)c(=O)[nH]c1=O (stereo not drawn)
inactive: dose: 50.0 mg/kg/injection, schedule: Q03HX024 (ip), vehicle: saline 100 % of control | dose: 100.0 mg/kg/injection, schedule: Q03HX024 (ip), vehicle: saline 100 % of control | dose: 200.0 mg/kg/injection, schedule: Q03HX024 (ip), vehicle: saline 98 % of control | dose: 400.0 mg/kg/injection, schedule: Q03HX024 (ip), vehicle: saline 100 % of control

C/C=C/C=C/COC(=O)CCCCCC
inactive: [1] 98 % of control and 108 % of control | [2] 108 % of control and 119 % of control | [3] 107 % of control | dose: 600.0 mg/kg/injection, schedule: Q04DX002 (ip), vehicle: saline 98 % of control

O=C(Nc1cc(C2=NCCN2)cc(C2=NCCN2)c1)c1ccc(C(=O)Nc2cc(C3=NCCN3)cc(C3=NCCN3)c2)cc1
inactive: dose: 0.37 mg/kg/injection, schedule: Q01DX Z (ip), vehicle: methylcellulose (MC) 94 % of control | dose: 0.75 mg/kg/injection, schedule: Q01DX Z (ip), vehicle: methylcellulose (MC) 111 % of control | dose: 1.5 mg/kg/injection, schedule: Q01DX Z (ip), vehicle: methylcellulose (MC) 101 % of control | dose: 2.0 mg/kg/injection, schedule: Q01DX Z (ip), vehicle: carboxymethylcellulose (CMC) 108 % of control | dose: 3.0 mg/kg/injection, schedule: Q01DX Z (ip), vehicle: methylcellulose (MC) 95 % of control | dose: 4.0 mg/kg/injection, schedule: Q01DX Z (ip), vehicle: carboxymethylcellulose (CMC) 92 % of control | dose: 15.0 mg/kg/injection, schedule: Q01DX Z (ip), vehicle: carboxymethylcellulose (CMC) 92 % of control

O=C(O)c1cccc(C(=O)Oc2ccccc2-c2ccccc2)c1
inactive: dose: 50.0 mg/kg/injection, schedule: Q01DX009 (ip), vehicle: saline with Tween-80 94 % of control | [12] 87 % of control | [13] 94 % of control

COC(=O)c1c[nH]c(=O)cc1O
inactive: [14] 101 % of control | [15] 98 % of control | [16] 98 % of control

CCOP(=S)(N/N=C1/C2(C)CCC(C2)C1(C)C)OCC (stereo not drawn)
inactive: [14] 97 % of control | [15] 97 % of control | [16] 91 % of control

CC(C)C(NC(=O)C(CSCc1ccccc1)NC(=O)OCc1ccccc1)C(N)=O (stereo not drawn) (Cbz-Cys(Bn)-Val-NH2; configuration not given here)
inactive: [4] 87 % of control | [6] 89 % of control

CC(=O)c1ccc2c3c(cccc13)CC2
inactive: [12] 102 % of control | dose: 100.0 mg/kg/injection, schedule: Q04DX003 (ip), vehicle: saline with Tween-80 88 % of control | [13] 98 % of control | dose: 200.0 mg/kg/injection, schedule: Q04DX003 (ip), vehicle: saline with Tween-80 104 % of control | dose: 400.0 mg/kg/injection, schedule: Q01DX009 (ip), vehicle: saline with Tween-80 101 % of control | dose: 400.0 mg/kg/injection, schedule: Q04DX003 (ip), vehicle: saline with Tween-80 97 % of control
